Results from patent US9975857B2, “Inhibition of bacterial biofilms with imidazole-phenyl derivatives” (North Carolina State University, priority 2008, dated 2018).

What follows are compounds tested on A. baumannii (assay: Biofilm inhibition assay (crystal violet, 96-well PVC plate)). Details: Acinetobacter baumannii; LB medium, 37° C., 24 hours, crystal violet OD540; read-out: ACTIVITY against A. baumannii: IC50 (biofilm inhibition).
Format: cell-based
Experimental: Biofilm inhibition assays were performed by taking an overnight culture of bacterial strain and subculturing it at an OD600 of 0.10 into LB medium. The compound being tested was then added at a predetermined concentration and then aliquoted (100 μL) into the wells of a 96-well PVC microtiter plate (Wells not used for samples were filled with 100 μL of de-ionized water). Plates were then wrapped in GLAD Press n' Seal® and incubated under stationary conditions at 37° C. After 24 hours, the media was discarded from the wells and the plates were washed thoroughly with tap water. Plates were then stained with 100 μL of 0.1% solution of crystal violet (CV) and then incubated at an ambient temperature for 30 minutes. Sample plates were then washed with tap water again, and the remaining stain was solubilized with 200 μL of 95% ethanol. Biofilm inhibition was quantitated by measuring the OD540 for each well by transferring 125 μL of the solubilized CV stain into a polystyrene microtiter dish for analysis.

| SMILES | IC50 [µM] |
| --- | --- |
| Nc1ncc(-c2ccc(C#Cc3cc(F)cc(F)c3)cc2)[nH]1 | < 50 |
| Nc1ncc(-c2ccccc2C#Cc2ccccc2)[nH]1 | 50 to 75 |

The next lines start with the values.

| IC50 [µM] | SMILES |
| --- | --- |
| < 50 | Nc1ncc(-c2ccccc2C#Cc2cccc(Cl)c2)[nH]1 |
| 6.54 | Nc1ncc(-c2ccc(C#Cc3ccccc3)cc2)[nH]1 |
| 40 to 50 | COc1ccc(C#Cc2ccccc2-c2cnc(N)[nH]2)c(C)c1 |

Same assay, conditions: Acinetobacter baumannii; at 100 μM; LB medium, 37° C., 24 hours, crystal violet OD540; read-out: ACTIVITY against A. baumannii: % inhibition (biofilm inhibition)

| SMILES | inhibition at 100 µM [%] |
| --- | --- |
| COc1ccccc1C#Cc1cccc(-c2cnc(N)[nH]2)c1 | 34 |
